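Protocol summary: plate cells (96-well), add compound at 5 concentrations, incubate 48 h, interpolate endpoints linearly. Here, GI50 denotes the concentration required for 50% inhibition of growth.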 Calls of active or inactive are those of the source. Cut-off read from the data, not from the text of the source: active = GI50 up to about 1.1 µM and inactive = higher.
Tests used:
Assay in all cases: DTP human tumour cell line panel, 48 h
[1] = test system: SF-268
[2] = test system: OVCAR-4
[3] = test system: M14
[4] = test system: RXF 393
[5] = test system: RPMI-8226
[6] = test system: NCI-H226
[7] = test system: LOX IMVI
[8] = test system: COLO 205
[9] = test system: CCRF-CEM
[10] = test system: A498
[11] = test system: EKVX
[12] = test system: SF-539
[13] = test system: UO-31
[14] = test system: SK-OV-3
[15] = test system: SW-620
[16] = test system: MCF7
[17] = test system: MDA-MB-231
[18] = test system: PC-3

Measured: GI50

COc1cc(C2C(Cl)C(=O)N2NC(=O)c2ccc(NC(C)=O)cc2)ccc1O (centres undefined)
inactive: [1] > 100 µM | [2] > 100 µM | [3] > 100 µM | [4] > 100 µM | [5] > 100 µM | [6] > 100 µM | [7] > 100 µM | [8] > 100 µM | [9] > 100 µM | [10] > 100 µM | [11] > 100 µM | [12] > 100 µM | [13] > 100 µM | [14] > 100 µM | [15] > 100 µM

COc1ccc(OC)c(/C(C)=N/NC(N)=S)c1
inactive: [1] > 100 µM | [2] > 100 µM | [3] > 100 µM | [4] > 100 µM | [5] > 100 µM | [6] > 100 µM | [7] > 100 µM | [8] > 100 µM | [9] > 100 µM | [10] > 100 µM | [11] > 100 µM | [12] > 100 µM | [13] > 100 µM | [14] > 100 µM | [15] > 100 µM

CN1CCCCC(C(O)(c2ccccc2)c2ccccc2)C1=O (centres undefined)
inactive: [1] > 100 µM | [2] > 100 µM | [3] > 100 µM | [4] 69 µM | [5] 24.1 µM | [6] > 100 µM | [7] > 100 µM | [8] 56.2 µM | [9] 85.5 µM | [10] > 100 µM | [11] > 100 µM | [12] > 100 µM | [13] > 100 µM | [14] > 100 µM | [15] 11.9 µM

CC(C)(C)C(=C[S+]([O-])/N=C/c1ccccc1)C(C)(C)C (centres undefined)
inactive: [1] 49.4 µM | [2] 21.4 µM | [3] 40.2 µM | [4] 26.7 µM | [5] 20.8 µM | [6] 20.7 µM | [7] 18.8 µM | [8] 41.1 µM | [9] 17.8 µM | [10] 36.4 µM | [11] 52.1 µM | [12] > 100 µM | [13] 27.2 µM | [14] 26.6 µM | [15] 50 µM

CC1C2C=C(O)C(=O)C(C2=O)C1c1ccccc1 (centres undefined)
inactive: [1] > 100 µM | [2] > 100 µM | [3] > 100 µM | [4] > 100 µM | [5] > 100 µM | [6] 45.1 µM | [7] > 100 µM | [8] > 100 µM | [9] > 100 µM | [10] > 100 µM | [11] > 100 µM | [12] > 100 µM | [13] > 100 µM | [14] > 100 µM | [15] > 100 µM

O=S1(=O)OCCOS(=O)(=O)C1(Br)Cc1ccccc1
inactive: [1] > 100 µM | [2] > 100 µM | [3] > 100 µM | [4] > 100 µM | [5] > 100 µM | [6] > 100 µM | [7] > 100 µM | [8] > 100 µM | [9] > 100 µM | [10] > 100 µM | [11] > 100 µM | [12] > 100 µM | [13] > 100 µM | [14] > 100 µM | [15] > 100 µM

COC(=O)[C@@H]1[C@H](O)[C@H](C)[C@H](O)[C@H](C)/C=C\C=C(\C)C(=O)Nc2c(C)c(OC(C)=O)c3c(c2O)C(=O)C(C)=C2OCOC(=C23)/C(C)=C/[C@@H](O)[C@H](O)[C@@H](C)[C@H]1OC(C)=O
inactive: [16] 26.2 µM | [1] 78.2 µM | [2] 33.2 µM | [3] 38.1 µM | [4] > 100 µM | [5] 15.5 µM | [17] 92.9 µM | [6] > 100 µM | [7] 40 µM | [9] 44.9 µM | [11] > 100 µM | [13] 38.5 µM | [18] 31.8 µM | [15] 32.1 µM

From ChEMBL document CHEMBL1201862, “PubChem BioAssay data set” (2004)
